Entries after “also recorded” stand apart in the source; their conditions may differ.

The values below come from patent publication US9175077B2, “Nucleic acids encoding biologically active polypeptides derived from a novel early stage pregnancy factor designated maternin (MA)” (NOBEL BIOSCIENCES LLC, priority 1999, dated 2015).

The subject of assay [1] is SIVMAC 251. Nature of the assay: SIV infection of rhesus macaque PBMCs (p27). The class given is cell-based. On the procedure: One hour later the various polypeptides were added once.
The subject of assay [2] is B16 melanoma and Lewis lung (LL) carcinoma. Kind of assay: Metastatic B16 melanoma and Lewis lung carcinoma in C57/BL mice. The class given is in vivo. The conditions noted are these: MAS1 or MAS2 0.1 ug or 1.0 ug. On the procedure:
B16 melanoma and Lewis lung (LL) carcinoma cells were first shown to be susceptible to the pro-apoptotic effects of MA (FIG. 6, Panels C and D) at the same dose range used with cultured human tumor cells. The tumor cells grown in standard culture conditions were used to generate metastatic cancers in pathogen-free 6-8 week old C57/BL mice (Charles River). In one set of experiments, the animals were treated with MAS1 or MAS2 at two doses, 0.1 ug or 1.0 ug either in a pre-treatment protocol (two subcutaneous inoculations 24 and 48 hrs before transplanting the tumor cells).

Assay [3] concerns spontaneous breast carcinomas. Kind of assay: Spontaneous breast carcinomas in Sprague-Dawley rats. The class given is in vivo. The following applies: 2 weeks of therapy. The source says:
(§1) As shown, MA killed a wide variety of human tumor cells in vitro and in vivo killed xenotransplanted human tumors in immune deficient mice. We wanted to be certain that the in vivo results would not be limited to immune deficient mice. […] Therefore, we tested the effects of MA on: • spontaneous fibrosarcomas which developed in three older FVB/N mice; and • spontaneous breast carcinomas which developed in three older Sprague-Dawley rats.
Similar results were obtained with the spontaneous mammary carcinomas of rats.

Assay [4] has as its system carcinoma of the lung HTB184. Nature of the assay: Confocal microscopy apoptosis. The following applies: 200 ng/ml; 24 hrs. The class given is cell-based, human. How it is done:
(§2) More extensive studies of the effects of MA and with truncated synthetic forms of MA (MAS) on a wide range of other human tumor cells were carried out using three-dimensional confocal microscopy. Cells were cultured and then seeded onto gelatinized glass chamber slides and incubated 24 hrs with the various test materials. The slides were then fixed with formalin and treated serially with Triton X-100 (0.01%) for 10 min at 25°, 0.4 ug/ml fluorescein isothiocyanate (FITC)-labeled Phalloidin (Sigma Chem. Co.) at room temperature for 30 min to bind actin, washed with PBS and the DNA stained with Propidium iodide (PI) (0.5 ug·ml) (Sigma Chemical Co.), for 15 min. The stained slides were washed and mounted on slow fade (Molecular Probes, Inc., Eugene, Oreg.) and examined through a dual emission filter XF53 (Omega, Inc., Brattlesboro, Va.) by fluorescent microscopy. In some experiments only DNA staining was performed. In these instances Triton X-100 was not used. The slides were stained with PI and examined for cell morphology and chromatin degradation under 3D confocal microscopy.

Assay [5] relates to carcinoma of the pancreas CRL 1682. Nature of the assay: Confocal microscopy apoptosis. The conditions noted are these: 200 ng/ml; 24 hrs. The class given is cell-based, human. On the procedure: as §2
Assay [6] relates to carcinoma of the colon. Kind of assay: Confocal microscopy apoptosis. The format is cell-based, human. The following applies: 200 ng/ml; 24 hrs. How it is done: as §2
For assay [7], the system named is Ewing's sarcoma. Kind of assay: Confocal microscopy apoptosis. The class given is cell-based, human. The conditions noted are these: 200 ng/ml; 24 hrs. How it is done: as §2
Assay [8] deals with melanoma HTB67. Kind of assay: Confocal microscopy apoptosis. The format is cell-based, human. The conditions noted are these: 200 ng/ml; 24 hrs. On the procedure:
as §2

For assay [9], the system named is fibrosarcoma 4TB166. Nature of the assay: Confocal microscopy apoptosis. The class given is cell-based, human. The following applies: 200 ng/ml; 24 hrs. On the procedure:
as §2

Assay [10] has as its system prostate carcinoma cell line PC3. Kind of assay: Confocal microscopy apoptosis. The format is cell-based, human. The conditions noted are these: 200 ng/ml; 24 hrs. How it is done: as §2
In assay [11] the test system is leukemia and lymphoma cell lines: HUT78, DAVDI, HG, SULTAN, T-cell lymphoma. Nature of the assay: Confocal microscopy apoptosis. The following applies: 200 ng/ml; 24 hrs. The format is cell-based, human. How it is done:
as §2

Assay [12] concerns carcinoma of the breast HTB124. Kind of assay: Confocal microscopy apoptosis. The class given is cell-based, human. The following applies: 200 ng/ml; 24 hrs. On the procedure:
as §2

Assay [13] has as its system prostate carcinoma cell line PC4. Nature of the assay: Confocal microscopy apoptosis. The format is cell-based, human. The conditions noted are these: 200 ng/ml; 24 hrs. On the procedure:
as §2

For assay [14], the system named is KS Y-1 cells. Nature of the assay: Confocal microscopy apoptosis. The following applies: 200 ng/ml; 24 hrs. The class given is cell-based, human. How it is done:
as §2

The test system of assay [15] is carcinoma of the kidney HTB46. Kind of assay: Confocal microscopy apoptosis. The format is cell-based, human. The following applies: 200 ng/ml; 24 hrs. On the procedure: as §2
The subject of assay [16] is gliobastoma HTB16. Nature of the assay: Confocal microscopy apoptosis. The class given is cell-based, human. The conditions noted are these: 200 ng/ml; 24 hrs. On the procedure:
as §2

In assay [17] the test system is HIV-1. On the procedure: Virus (MOI of 0.001) was added to 10^6 cells in RPMI-1640 with 10% FCS. One hour later the various polypeptides were added once. The cells cultured for 3 days with 5 ug PHA and 20 i.m. of II-2/ml at 37°, after which virus was estimated by determining p24 (HIV-1) or p27 (SIV) (Organon-Teknika).
The effect of native and synthetic MA on HIV-1 infection in vitro was evaluated using PHA and II-2 stimulated primary peripheral blood cells (PBMC), CD4+ T-cells enriched fractions from PBMC, and CD14+ macrophage enriched fractions. Infection was with HIV-1 IIIB (PBMC and CD4+ T-cells), HIV-1 Ba-L (macrophages), and two primary HIV-1 isolates not passaged in any cell line (PBMC).

The test system of assay [18] is spontaneous fibrosarcomas. Nature of the assay: Spontaneous fibrosarcomas in FVB/N mice. The class given is in vivo. The following applies: treatment for 2 weeks.
From the text: as §1
The tumors were recognized and treated after different stages of development. Samples of the tumor cells were grown in short-term culture and when treated with MA underwent rapid apoptosis.

The nature of assay [19]: Acutely bled rats. The format is in vivo, Sprague-Dawley rats. The conditions noted are these: i.p. 24 and 48 hrs after 35-40% blood loss. The source says: To delineate the effects of MA on hematopoiesis in the absence of any external bone marrow suppression, blood (35-40% of total blood volume) was removed from five Sprague-Dawley rats by intracardiac puncture. […] Each panel illustrates the mean values for the three animals treated with MAS1. Thus, MA and related derivatives have potent pro-hematopoietic effects.

As for “VVCNYRDVRFESIRLPGCPRGVNPVVSYAVALSCQ [MA]”, the “inhibition of SIVMAC 251 infection (qualitative)” value in assay [1] is “inhibited”. Besides, the “pro-apoptotic effect on neoplastic cells in vivo” value in [2] is recorded as “potent pro-apoptotic effect”. Besides, the tumor outcome in [3] is recorded as “complete tumor regression; also recorded: partial tumor regression”; in assay [18], “complete abolishment of the tumor in two of three animals; also recorded: Partial regression was observed in one animal”. In addition, the induction of apoptosis entry in [4], in assay [5], in assay [6], in [7], in [8] and in [9] was “induced apoptosis” in each case. For the same sequence, the induction of apoptosis result in assay [10], in assay [11], in assay [12], in assay [13], in assay [14] and in assay [15] was “induced apoptosis” throughout. For the same sequence, in assay [16], the induction of apoptosis result is “induced apoptosis”. Also, the “inhibition of primary HIV-1 isolates in PBMCs” value in assay [17] was “inhibited replication”. Besides, in [17] (read-out: concentration at which virus production was inhibited 50%, IIIB and Ba-L, p24 in extracellular fluid), the IC50 was around 0.03 µM. In addition, the “recovery of peripheral blood cells” value in assay [19] is “prompt recovery”.
